Test results as given in PubChem BioAssay (NCI).
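Dose response: 5 concentrations. Exposure: 48 h. Format: 96-well plates. Endpoint: linear interpolation; highest concentration if not reached. GI50: concentration for 50% inhibition of growth. The concentration for full growth arrest is given as TGI.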

Experiments:
Test in all cases: growth of human tumour cells (NCI), 48 h
[1] = tested on: CCRF-CEM leukemia
[2] = tested on: ACHN renal
[3] = tested on: SNB-19 CNS
[4] = tested on: T-47D breast
[5] = tested on: MALME-3M melanoma
[6] = tested on: OVCAR-5 ovarian
[7] = tested on: HCT-116 colon
[8] = tested on: UACC-257 melanoma
[9] = tested on: RPMI-8226 leukemia
[10] = tested on: OVCAR-8 ovarian
[11] = tested on: EKVX NSCLC
[12] = tested on: MDA-MB-435
[13] = tested on: 786-0 renal
[14] = tested on: UO-31 renal
[15] = tested on: NCI/ADR-RES ovarian
[16] = tested on: OVCAR-3 ovarian
[17] = tested on: RXF 393 renal
[18] = tested on: SR leukemia
[19] = tested on: NCI-H23 lung
[20] = tested on: SF-539 CNS
[21] = tested on: SF-268 CNS
[22] = tested on: SK-MEL-28 melanoma
[23] = tested on: MOLT-4 leukemia
[24] = tested on: TK-10 renal
[25] = tested on: COLO 205 colon
[26] = tested on: LOX IMVI melanoma
[27] = tested on: NCI-H522 lung
[28] = tested on: MDA-MB-231 breast
[29] = tested on: HCC-2998 colon
[30] = tested on: KM12 colon
[31] = tested on: CAKI-1 renal
[32] = tested on: SNB-75 CNS
[33] = tested on: HOP-92 NSCLC
[34] = tested on: MCF7 breast
[35] = tested on: UACC-62 melanoma
[36] = tested on: BT-549 breast
[37] = tested on: U251 CNS
[38] = tested on: IGROV1 ovarian
[39] = tested on: SF-295 CNS
[40] = tested on: NCI-H226 lung
[41] = tested on: DU-145 prostate
[42] = tested on: SK-MEL-5 melanoma
[43] = tested on: K-562 leukemia
[44] = tested on: SK-MEL-2 melanoma
[45] = tested on: SK-OV-3 ovarian
[46] = tested on: A549 NSCLC
[47] = tested on: HS 578T breast
[48] = tested on: OVCAR-4 ovarian
[49] = tested on: PC-3 prostate
[50] = tested on: SW-620 colon
[51] = tested on: NCI-H460 lung
[52] = tested on: HT29 colon
[53] = tested on: HCT-15 colon
[54] = tested on: SN12C renal
[55] = tested on: A498 renal
[56] = tested on: HL-60(TB) leukemia
[57] = tested on: M14 melanoma
[58] = tested on: HOP-62 NSCLC

## COc1ccc2c(c1)CCC1C2CC[C@@]2(C)C1CC[C@@H]2NC(=O)Cc1ccc(O)c(O)c1 (some centres undefined)
[1]
  GI50: 2.86 µM
  TGI: 17.6 µM
[2]
  GI50: 6.01 µM
  TGI: 18.9 µM
[3]
  GI50: 13.3 µM
  TGI: 33.4 µM
[4]
  GI50: 6.91 µM
  TGI: 72.8 µM
[5]
  GI50: 9.13 µM
  TGI: 41 µM
[6]
  GI50: 19.8 µM
  TGI: 37.7 µM
[7]
  GI50: 3.53 µM
  TGI: 18.9 µM
[8]
  GI50: 17 µM
  TGI: 30.8 µM
[9]
  GI50: 3.68 µM
  TGI: > 100 µM
[10]
  GI50: 8.71 µM
  TGI: 30.8 µM
[11]
  GI50: 13.5 µM
  TGI: 31.4 µM
[12]
  GI50: 4.63 µM
  TGI: 17.2 µM
[13]
  GI50: 5 µM
  TGI: 17.7 µM
[14]
  GI50: 3.56 µM
  TGI: 15.2 µM
[15]
  GI50: 10.7 µM
  TGI: 33.6 µM
[16]
  GI50: 3.7 µM
  TGI: 19.2 µM
[17]
  GI50: 10.7 µM
  TGI: 27.3 µM
[18]
  GI50: 3.46 µM
  TGI: 18.7 µM
[19]
  GI50: 11.9 µM
  TGI: 27.6 µM
[20]
  GI50: 4.84 µM
  TGI: 17.3 µM
[21]
  GI50: 7.48 µM
  TGI: 25.3 µM
[22]
  GI50: 9.9 µM
  TGI: 24.2 µM
[23]
  GI50: 2.76 µM
  TGI: 83 µM
[24]
  GI50: 8.86 µM
  TGI: 22.1 µM
[25]
  GI50: 3.34 µM
  TGI: 12.5 µM
[26]
  GI50: 8.15 µM
  TGI: 20.6 µM
[27]
  GI50: 1.9 µM
  TGI: 4.25 µM
[28]
  GI50: 4.05 µM
  TGI: 16.9 µM
[29]
  GI50: 13.4 µM
  TGI: 28.2 µM
[30]
  GI50: 5.47 µM
  TGI: 21.7 µM
[31]
  GI50: 8.53 µM
  TGI: 21.7 µM
[32]
  GI50: 3.44 µM
  TGI: 12.5 µM
[33]
  GI50: 14.2 µM
  TGI: 30.8 µM
[34]
  GI50: 11.2 µM
  TGI: 32.1 µM
[35]
  GI50: 4.14 µM
  TGI: 14.8 µM
[36]
  GI50: 9.66 µM
  TGI: 25.5 µM
[37]
  GI50: 4.94 µM
  TGI: 18.8 µM
[38]
  GI50: 2.29 µM
  TGI: 7.68 µM
[39]
  GI50: 13.4 µM
  TGI: 32.1 µM
[40]
  GI50: 10.1 µM
  TGI: 35.3 µM
[41]
  GI50: 8.47 µM
  TGI: 20.8 µM
[42]
  GI50: 8.96 µM
  TGI: 21.8 µM
[43]
  GI50: 4.31 µM
  TGI: > 100 µM
[44]
  GI50: 15.2 µM
  TGI: 33.8 µM
[45]
  GI50: 16.7 µM
  TGI: 33.4 µM
[46]
  GI50: 14.6 µM
  TGI: 29.9 µM
[47]
  GI50: 7.22 µM
  TGI: 43.9 µM
[48]
  GI50: 4.26 µM
  TGI: 18.6 µM
[49]
  GI50: 6.3 µM
  TGI: 19.4 µM
[50]
  GI50: 6.41 µM
  TGI: 25 µM
[51]
  GI50: 12.3 µM
  TGI: 31.9 µM
[52]
  GI50: 10.3 µM
  TGI: 25.3 µM
[53]
  GI50: 3.74 µM
  TGI: 16.7 µM
[54]
  GI50: 5.79 µM
  TGI: 19.6 µM
[55]
  GI50: 18.8 µM
  TGI: 33.7 µM

## NCCCCC(NC(=O)C(N)CCCN=C(N)N)C(=O)NC(CCCCN)C(=O)NC(CCCN=C(N)N)C(=O)NC(CCCN=C(N)N)C(=O)NC(CCC(N)=O)C(=O)NC(CCCN=C(N)N)C(=O)NC(CCCN=C(N)N)C(=O)NC(CCCN=C(N)N)C(=O)NCC(=O)NCC(=O)O (centres undefined)
[1]
  GI50: 1.53 µM
  TGI: 8.52 µM
[2]
  GI50: > 50 µM
  TGI: > 50 µM
[3]
  GI50: > 50 µM
  TGI: > 50 µM
[4]
  GI50: > 50 µM
  TGI: > 50 µM
[5]
  GI50: > 50 µM
  TGI: > 50 µM
[6]
  GI50: > 50 µM
  TGI: > 50 µM
[7]
  GI50: > 50 µM
  TGI: > 50 µM
[9]
  GI50: > 50 µM
  TGI: > 50 µM
[10]
  GI50: > 50 µM
  TGI: > 50 µM
[11]
  GI50: > 50 µM
  TGI: > 50 µM
[12]
  GI50: > 50 µM
  TGI: > 50 µM
[13]
  GI50: > 50 µM
  TGI: > 50 µM
[14]
  GI50: > 50 µM
  TGI: > 50 µM
[15]
  GI50: > 50 µM
  TGI: > 50 µM
[56]
  GI50: > 50 µM
  TGI: > 50 µM
[16]
  GI50: > 50 µM
  TGI: > 50 µM
[17]
  GI50: > 50 µM
  TGI: > 50 µM
[18]
  GI50: > 50 µM
  TGI: > 50 µM
[19]
  GI50: > 50 µM
  TGI: > 50 µM
[20]
  GI50: > 50 µM
  TGI: > 50 µM
[21]
  GI50: > 50 µM
  TGI: > 50 µM
[22]
  GI50: > 50 µM
  TGI: > 50 µM
[23]
  GI50: > 50 µM
  TGI: > 50 µM
[24]
  GI50: > 50 µM
  TGI: > 50 µM
[25]
  GI50: > 50 µM
  TGI: > 50 µM
[26]
  GI50: > 50 µM
  TGI: > 50 µM
[27]
  GI50: > 50 µM
  TGI: > 50 µM
[28]
  GI50: > 50 µM
  TGI: > 50 µM
[29]
  GI50: > 50 µM
  TGI: > 50 µM
[30]
  GI50: > 50 µM
  TGI: > 50 µM
[31]
  GI50: > 50 µM
  TGI: > 50 µM
[32]
  GI50: > 50 µM
  TGI: > 50 µM
[33]
  GI50: > 50 µM
  TGI: > 50 µM
[34]
  GI50: > 50 µM
  TGI: > 50 µM
[35]
  GI50: > 50 µM
  TGI: > 50 µM
[36]
  GI50: > 50 µM
  TGI: > 50 µM
[37]
  GI50: > 50 µM
  TGI: > 50 µM
[57]
  GI50: > 50 µM
  TGI: > 50 µM
[38]
  GI50: > 50 µM
  TGI: > 50 µM
[39]
  GI50: > 50 µM
  TGI: > 50 µM
[40]
  GI50: > 50 µM
  TGI: > 50 µM
[41]
  GI50: > 50 µM
  TGI: > 50 µM
[42]
  GI50: > 50 µM
  TGI: > 50 µM
[43]
  GI50: > 50 µM
  TGI: > 50 µM
[58]
  GI50: > 50 µM
  TGI: > 50 µM
[44]
  GI50: > 50 µM
  TGI: > 50 µM
[45]
  GI50: > 50 µM
  TGI: > 50 µM
[46]
  GI50: > 50 µM
  TGI: > 50 µM
[47]
  GI50: > 50 µM
  TGI: > 50 µM
[48]
  GI50: > 50 µM
  TGI: > 50 µM
[49]
  GI50: > 50 µM
  TGI: > 50 µM
[50]
  GI50: > 50 µM
  TGI: > 50 µM
[51]
  GI50: > 50 µM
  TGI: > 50 µM
[52]
  GI50: > 50 µM
  TGI: > 50 µM
[53]
  GI50: > 50 µM
  TGI: > 50 µM
[54]
  GI50: > 50 µM
  TGI: > 50 µM
[55]
  GI50: > 50 µM
  TGI: > 50 µM
